Measurements: US20250049791A1, “Synthesis of MEK7 Inhibitors and methods of Use Thereof” (Northwestern University, priority 2023, published 2025)
“Also recorded” adds a separate entry of the source.

Columns and labels:
[1] = system: T-ALL cell lines (JURKAT, KOPT-K1, RPMI-8402, ALL-SIL); assay: Cytotoxicity assay (CellTiter-Glo), T-ALL cell lines; assay type: cell-based; settings: 48 hours
[2] = biological target: T1, full-length MAP2K7 N-terminal GST fusion protein (Homo sapiens, UniProt O14733); assay: Whole-protein LC/TOF-MS of covalent labeling; assay type: binding; settings: 2 equiv inhibitor, 5° C., 12 hours
T1 construct: purchased Carna Biosciences 07-147-10; host or cells: E. coli
T1 sequence (O14733 1-419): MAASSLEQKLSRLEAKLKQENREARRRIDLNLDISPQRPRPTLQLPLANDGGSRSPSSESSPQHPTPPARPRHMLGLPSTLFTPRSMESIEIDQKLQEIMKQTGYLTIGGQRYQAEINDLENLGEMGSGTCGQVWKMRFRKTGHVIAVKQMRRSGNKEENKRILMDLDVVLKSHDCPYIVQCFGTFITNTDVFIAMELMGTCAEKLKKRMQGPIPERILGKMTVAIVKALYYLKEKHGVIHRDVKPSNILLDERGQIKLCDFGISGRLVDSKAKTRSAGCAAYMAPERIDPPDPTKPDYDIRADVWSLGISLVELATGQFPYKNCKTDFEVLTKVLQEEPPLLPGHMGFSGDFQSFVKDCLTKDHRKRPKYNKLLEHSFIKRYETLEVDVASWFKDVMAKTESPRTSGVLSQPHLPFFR
Method: The construct was full-length MAP2K7 (1-419 amino acids of accession number NP_660186.1), which was prepared by the manufacturer as an N-terminal GST-fusion protein using an E. coli expression system. The construct was then purified by glutathione sepharose chromatography and shipped in a storage buffer containing 50 mM Tris —HCl, 150 mM NaCl, 0.05 mM Brij-35, 1 mM DTT, and 10% glycerol at pH=7.5.
Each whole-protein MS experiment was run with a 10 uL injection of a sample containing 50 μg of protein diluted to a final volume of 100 μL. The construct aliquots were first diluted to the appropriate volume with an aqueous solution of 150 mM NaCl and 50 mM Tris —HCl. The diluted samples were loaded on a Pierce spin column (ThermoFisher Scientific catalog number: 87777) to remove Brij-35 and finally eluted with the appropriate volume of the same buffer. Finally, 1.3 uL of DMSO (vehicle) or a 1 mM DMSO solution of covalent inhibitor was added, and the resulting roughly 101 uL solutions were incubated at 5° C. for 12 hours. The incubates were injected (10 uL) on an Agilent 6201 MSLC-TOF (ESI) with a protein column. A 10 minute water:acetonitrile gradient was performed, eluting recombinant proteins of interest in roughly 5 minutes. Masses were deconvoluted using MassHunter BioConfirm (maximum entropy).

[3] = system: p38α/β; assay: ScanEDGE competition binding, p38α/β; settings: ScanEDGE screen
Text: (§1) The ScanEDGE assay, completed by DiscoverX (Eurofins) is a proprietary active site-directed competition binding assay. Compounds that bind the kinase active site prevent kinase binding to the immobilized ligand, reducing the amount of kinase captured on the solid support. Hits are identified by measuring the amount of kinase captured in experimental vs, control samples by a qPCR method that detects an associated DNA label. According to data provided by Eurofins, a typical hit at 5-10% of control signal in a 1 μM assay as shown above is generally associated with a KD in the range of 100-1,000 nM. Readings with greater than 35% of control signal correspond to exceeding large dissociation constants.

[4] = biological target: T2, MAP2K7 recombinant protein (Homo sapiens, UniProt O14733); assay: LC/MS-MS determination of residue selectivity; assay type: binding
T2 construct: purchased Carna Biosciences 07-147-10; host or cells: E. coli
T2 sequence (O14733 1-419): T1 sequence (O14733 1-419)
Method: MAP2K7 recombinant protein was diluted, purified, and incubated as described above. After incubation, protein solution was denatured with 8 M urea for 10 minutes at 65° C., reduced with 12.5 mM DTT for 15 minutes at 65° C., and alkylated with 25 mM iodoacetamide in the absence of light for 30 minutes at 37° C. Protein solution was diluted with PBS to 2 M urea and divided into two digestion reactions: one with 2 μg trypsin and 10 μg chymotrypsin for 6 hours at 37° C., the other with 5 μg GluC for 6 hours at 37° C. Digested peptides were acidified with 5% formic acid and desalted using Sep-Pak C18 1 cc Vac Cartridge (Waters). Peptides were analyzed by liquid chromatography tandem mass-spectrometry using an Orbitrap Eclipse Tribrid Mass Spectrometer (Thermo Scientific) coupled to an Vanquish Neo UHPLC System (Thermo Scientific). Peptides were injected onto EASY-Spray HPLC Column (C18, 2 μm particle size, 75 μm inner diameter, 250 mm length) and separated at a flow rate of […] using the following gradient: 5% buffer B (80% acetonitrile with 0.1% formic acid) in buffer A (water with 0.1% formic acid) from 0-15 min, 5-45% buffer B from 15-155 min, 45-100% buffer B from 155-180 min. Raw data was searched in Proteome Discoverer 2.5 (Thermo Scientific).

[5] = biological target: T3, EGFR (L858R) mutant (Homo sapiens, UniProt P00533, L858R); assay: ScanEDGE competition binding, EGFR (L858R); set-up: dose or concentration left out as unconfirmed
T3 construct: purchased DiscoverX (Eurofins)
Text: as §1

[6] = system: 90 wildtype kinases; assay: ScanEDGE 97-kinase selectivity screen (DiscoverX/Eurofins), panel and S-score; assay type: binding
Text: as §1
Selectivity score (or S-score) is a quantitative measure of compound selectivity corresponding to the ratio of hits to the number of screened wildtype kinases.

[7] = system: JNK1/2/3; assay: ScanEDGE competition binding, JNK1/2/3; settings: ScanEDGE screen
Text: as §1

[8] = biological target: T4, MEK5 (Homo sapiens, UniProt Q13163); assay: Additional selectivity assay, MEK5 (FIG. 9); assay type: binding
T4 sequence (Q13163 1-448): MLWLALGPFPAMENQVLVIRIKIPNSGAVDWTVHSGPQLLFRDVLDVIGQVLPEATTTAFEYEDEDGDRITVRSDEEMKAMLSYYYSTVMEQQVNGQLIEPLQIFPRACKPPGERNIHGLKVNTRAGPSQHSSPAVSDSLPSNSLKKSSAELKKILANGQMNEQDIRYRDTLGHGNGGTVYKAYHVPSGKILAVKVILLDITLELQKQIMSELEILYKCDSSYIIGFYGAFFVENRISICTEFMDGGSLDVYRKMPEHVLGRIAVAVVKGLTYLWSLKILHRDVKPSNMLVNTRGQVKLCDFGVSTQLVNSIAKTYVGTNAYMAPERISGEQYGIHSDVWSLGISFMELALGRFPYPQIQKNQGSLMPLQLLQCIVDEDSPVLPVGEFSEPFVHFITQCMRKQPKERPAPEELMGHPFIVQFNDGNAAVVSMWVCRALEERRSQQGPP

T3 sequence (P00533 25-1210 L858R): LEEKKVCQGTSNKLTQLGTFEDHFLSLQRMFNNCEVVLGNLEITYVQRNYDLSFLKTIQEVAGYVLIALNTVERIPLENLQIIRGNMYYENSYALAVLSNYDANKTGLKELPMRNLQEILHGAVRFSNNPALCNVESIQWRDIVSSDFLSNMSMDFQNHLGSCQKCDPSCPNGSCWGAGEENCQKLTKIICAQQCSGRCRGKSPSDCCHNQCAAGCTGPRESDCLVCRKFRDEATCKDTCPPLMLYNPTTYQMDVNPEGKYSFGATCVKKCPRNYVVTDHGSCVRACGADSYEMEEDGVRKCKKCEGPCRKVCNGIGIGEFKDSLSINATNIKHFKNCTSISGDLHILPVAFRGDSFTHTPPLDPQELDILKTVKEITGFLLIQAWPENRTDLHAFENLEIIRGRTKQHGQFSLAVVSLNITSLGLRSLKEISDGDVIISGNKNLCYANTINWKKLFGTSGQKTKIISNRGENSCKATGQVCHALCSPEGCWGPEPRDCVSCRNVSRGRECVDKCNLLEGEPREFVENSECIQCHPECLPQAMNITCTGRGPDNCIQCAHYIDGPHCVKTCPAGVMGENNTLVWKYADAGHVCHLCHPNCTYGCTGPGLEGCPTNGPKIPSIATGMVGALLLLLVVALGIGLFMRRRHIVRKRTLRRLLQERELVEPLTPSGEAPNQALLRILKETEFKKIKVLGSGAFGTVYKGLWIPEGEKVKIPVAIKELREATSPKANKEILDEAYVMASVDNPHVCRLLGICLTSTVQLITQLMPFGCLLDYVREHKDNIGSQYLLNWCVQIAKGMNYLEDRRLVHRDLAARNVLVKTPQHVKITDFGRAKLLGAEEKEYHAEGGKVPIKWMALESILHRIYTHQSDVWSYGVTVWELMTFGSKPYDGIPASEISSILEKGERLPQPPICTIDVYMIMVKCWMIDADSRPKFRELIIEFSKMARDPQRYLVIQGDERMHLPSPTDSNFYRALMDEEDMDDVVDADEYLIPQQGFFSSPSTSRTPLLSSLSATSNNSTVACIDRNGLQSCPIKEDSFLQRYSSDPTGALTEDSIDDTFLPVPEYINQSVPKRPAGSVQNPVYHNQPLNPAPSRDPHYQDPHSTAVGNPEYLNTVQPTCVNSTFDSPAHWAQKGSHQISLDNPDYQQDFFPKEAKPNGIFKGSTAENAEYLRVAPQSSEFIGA

- activity on p38α/β [3]: no appreciable activity
- cysteine residue covalently engaged, GluC digest [4]: Cys341
- cysteine residue covalently engaged, trypsin/chymotrypsin digest [4]: Cys218
- binding to EGFR (L858R) mutant [5]: interacted significantly
- Number of Hits, S(1) ([6]; 1000 nM, 90 non-mutant kinases): 0
- Number of Hits, S(10) ([6]; 1000 nM, 90 non-mutant kinases): 1
- Number of Hits, S(35) ([6]; 1000 nM, 90 non-mutant kinases): 1
- Selectivity Score S(10) ([6]; 1000 nM, 90 non-mutant kinases): 0.011
- Selectivity Score S(35) ([6]; 1000 nM, 90 non-mutant kinases): 0.011
- selectivity score after adding MEK3, MEK5 and MEK6 (1/93) ([6]; 93 kinases): 0.011
- activity on JNK1/2/3 [7]: no appreciable activity
- activity/binding at MEK5 [8]: inactive; also recorded: lack of binding
Structure (SMILES): O=C(CCl)Nc1cccc(Oc2cc(NCc3ccccc3)ncn2)c1 [Compound 25, N-(3-((6-(benzylamino)pyrimidin-4-yl)oxy)phenyl)-2-chloroacetamide]
- dose-response cytotoxicity [1]: marked cytotoxicity
- covalent labeling of MAP2K7, whole-protein MS [2]: covalent engagement; also recorded: Complete labeling
